Measurements reported in ChEMBL document CHEMBL1155018, “Toward prediction of alkane/water partition coefficients” (J Med Chem, 2008).

How the values were obtained:
in vivo = conditions: Wistar, rat
[1] = hexadecane/water, pH 7.4
physchem [2] = conditions: octanol/water, pH 7.4
physchem [3] = conditions: octanol/water
[4] = hexadecane/water
Description: Hexadecane-water partition coefficient, log P of the compound

[5] = octanol/water
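Wherever Kp is given: drug concentration in brain divided by that in blood, measured in Wistar rats.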

logD [1]	logD (physchem [2])	SMILES	other results
		CN1Cc2c(-c3noc(C(C)(O)CO)n3)ncn2-c2cccc(Cl)c2C1=O (configuration not stated)	Kp (in vivo; brain): 0.0151
		CN1Cc2c(-c3noc(C(C)(C)O)n3)ncn2-c2cccc(Cl)c2C1=O	Kp (in vivo; brain / blood): 0.0457
-0.15	1.32	CN1C(=O)c2ccccc2C1=O	
-0.15	1.52	Cn1c(=O)ccc2ccccc21	
		CC(C)c1nc(-c2ncn3c2CN(C)C(=O)c2c(Cl)cccc2-3)no1	Kp (in vivo; brain / blood): 0.501
-0.89	1.34	Cn1cnc2ccccc21	
-0.6	1.32	O=C1CCCN1Cc1ccccc1	
0	1.25	CN1C(=O)Cc2ccccc21	
-0.29	1.02	O=C1Cc2ccccc2CO1	
		Clc1ccc(Cn2ccnn2)cc1	logP (physchem [3]): 1.78
-0.49	0.79	c1cnc2cccnc2c1	
0.16	1.6	CN(C)C(=O)N(C)c1ccccc1	
-0.98	0.71	CN(C)C(=O)c1ccccc1	
-0.03	2.09	O=c1ccccn1Cc1cccc(Cl)c1	
		Clc1ccc2ncncc2c1	logP (physchem [3]): 1.78
1.36	1.74	c1ccc2c(c1)COC2	
0.07	1.83	CN(C)C(=O)Cc1ccc(Br)cc1	
0.53	1.33	Cn1c(=O)n(C)c2ccccc21	
		Cc1cnccn1	logP (physchem [3]): 0.23
0.56	1.9	Cc1ccc2occc(=O)c2c1	
1.23	2.81	[O-][S+](CC1CCCCC1)c1ccccc1 (configuration not stated)	
0.49	1.69	CCN1C(=O)Cc2ccccc21	
		O=C1CCCN1CCCCN1CCN(c2cc(C(F)(F)F)ccn2)CC1	Kp (in vivo; brain): 1.45
		Cc1cccc2c1Oc1ccccc1[C@@]1(O)CCN(C)C[C@@H]21	Kp (in vivo; brain): 6.61
		Clc1ccc2c(c1)[C@H]1CNC[C@@H]1c1ccccc1O2	Kp (in vivo; brain / blood): 2.45

logD [1]	logD (physchem [2])	SMILES	other results
-0.57	1.71	Cc1ccc2c(c1)c(C)cc(C)[n+]2[O-]	
-1.07	0.87	CN1Cc2ccccc2C1=O	
-0.72	1.37	O=c1ccccn1Cc1ccccc1	
-1.76	2.47	O=c1ccn(Cc2ccc(-c3ccccc3)cc2)cc1	
0.18	2.47	O=c1ccccn1Cc1ccc(C(F)(F)F)cc1	
-1.4	1.8	CCn1c(C)cc(=O)c2ccc(Cl)cc21	
1.36	3.22	Clc1ccc2cc[nH]c2c1	
		Cc1cccc2c1Oc1ccccc1[C@@]1(O)CCNC[C@@H]21	Kp (in vivo; brain): 3.31
0.96	1.61	CC(=O)c1ccccc1 [ACETOPHENONE]	logP [4]: 1.12
		CN(C)CCC=C1c2ccccc2CCc2ccccc21 [AMITRIPTYLINE]	Kp (in vivo; brain / blood): 9.55
1.9	2.15	COc1ccccc1 [ANISOLE]	logP [4]: 2.13
		CN1C[C@@H]2c3ccccc3Oc3ccc(Cl)cc3[C@H]2C1 [ASENAPINE]	Kp (in vivo; brain): 10.7
0.75	1.49	c1ccc2nocc2c1 [BENZO[C]ISOXAZOLE]	
		c1ccc2nnccc2c1 [CINNOLINE]	logP (physchem [3]): 1.01
		CNCCCN1c2ccccc2CCc2ccccc21 [DESIPRAMINE]	Kp (in vivo; brain): 10
		CN(C)CCCN1c2ccccc2CCc2ccccc21 [IMIPRAMINE]	Kp (in vivo; brain / blood): 11.2
0.66	2.24	c1ccc2[nH]ccc2c1 [INDOLE]	
		N#Cc1ccncc1 [ISONICOTINONITRILE]	logP [5]: 0.46
0.98	2.09	c1ccc2cnccc2c1 [ISOQUINOLINE]	
		CN1CCN2c3ncccc3Cc3ccccc3C2C1 (configuration not stated) [MIRTAZAPINE]	Kp (in vivo; brain): 3.39
		Cc1nc2n(c(=O)c1CCN1CCC(c3noc4cc(F)ccc34)CC1)CCCC2O (configuration not stated) [PALIPERIDONE]	Kp (in vivo; brain / blood): 0.214
		COc1ccc(CN(CCN(C)C)c2ccccn2)cc1 [PYRILAMINE]	Kp (in vivo; brain): 3.09
0.47	1.31	c1ccc2nccnc2c1 [QUINOXALINE]	
		Cc1nc2n(c(=O)c1CCN1CCC(c3noc4cc(F)ccc34)CC1)CCCC2 [RISPERIDONE]	Kp (in vivo; brain): 0.955

SMILES	logD [1]	logD (physchem [2])	other results
[O-][S+](c1ccccc1)c1ccccc1	0.66	2.1	
CC(=O)N(C)c1ccccc1	-0.54	1	
COc1ccc(C#N)cc1	0.92	1.75	
Clc1ccccn1 [2-CHLOROPYRIDINE]	0.52	1.23	
O=S(=O)(c1ccccc1)c1ccccc1 [(PHENYLSULFONYL)BENZENE]	0.75	2.41	
N#Cc1ccccc1 [BENZONITRILE]	0.91	1.56	logP [4]: 0.99
c1ccc(Cn2ccnc2)cc1 [BENZYLIMIDAZOLE]	-0.83	1.55	
O=[N+]([O-])c1ccccc1 [NITROBENZENE]		1.83	
c1ccc2ncccc2c1 [QUINOLINE]		1.99	
